# Measurements reported in PMC9344964 (Journal of Enzyme Inhibition and Medicinal Chemistry, 2022).
# Like-named read-outs stand apart in the source and are kept apart here.
# Columns and labels:
# MTT cytotoxicity assay = type: cell-based; settings: African green monkey, Vero E6 cells, read-out: cytotoxic concentration 50 (CC50)
# Protocol: It was performed to calculate the newly synthesised candidates’ minimum concentrations that cause 50% toxicity to the cells (CC50). First, the newly synthesised derivatives were dissolved in ddH2O with 10% DMSO and then diluted with Dulbecco's Modified Eagle's Medium (DMEM) to the desired concentrations. The MTT assay method was performed with minor changes using VERO-E6 cells (ready for the virus propagation) to be applied in other experiments. The complete methodology was elucidated in the Supplementary Data (SI2).
# (§1) SI 2. MTT cytotoxicity assay.
# (§2) The VERO-E6 cells were kept in 96 well-plates at 37°C in 5% CO2 for 24 h to be cultivated. The tested compounds were diluted with DMEM in HA plate in triplicates as mentioned before and then poured onto the prepared cells after washing twice by sterile 1x phosphate buffer saline (PBS). 24 h later, the cell monolayers were washed three times with sterile 1x PBS after removal of the supernatant followed by the addition of the MTT solution into each individual well (20 µl of 5 mg/ml stock solution) which was kept at 37°C for 4 h. The formed formazan crystals were dissolved using an acidified isopropanol (200 µl) and the absorbance of their solutions were recorded through a multi-well plate reader (λmax = 540 nm) against a reference wavelength (λmax= 620 nm). Finally, the cytotoxicity % of the tested compounds compared to the control cells (untreated cells) was calculated as follow:
# (§3) % Cytotoxicity = (the absorbance of untreated cells − absorbance of treated cells) X 100 […]
# (§4) SI 3. Inhibitory concentration 50 (IC50) determination.
# (§5) The Vero-E6 cells (2.4×104) were kept overnight at 37°C in 5% CO2 inside 96-well tissue culture plates. 1x PBS solution was used to wash the cell monolayers for only one time which were then treated with different serial dilutions of the examined compounds together with a fixed dilution from the virus (hCoV-19/Egypt/NRC-03/2020 (Accession Number on GSAID: EPI_ISL_430820)) following TCID50 test and kept at RT for 1 h before starting incubation. Also, the cell monolayers were subjected to DMEM (100 μl) with different concentrations of the test samples and virus and left at 37°C for 72 h in a 5% CO2. Then, 4% paraformaldehyde (100 μl) was used for cell fixation (2 h) followed by the staining step with 0.1% crystal violet in distilled H2O (50 μl) at RT for 15 min. Absolute CH3OH (100 μl) was added to dissolve the crystal violet dye per well to measure the optical density of the produced color using Anthos Zenyth 200rt plate reader at 570 nm.1 The IC50 value for each tested compound which is corresponding to its minimum concentration required to reduce the virus infectivity by 50% in comparison to the virus control was calculated.
# SARS-CoV-2 Mpro = SARS-CoV-2 Mpro (Severe acute respiratory syndrome coronavirus 2, UniProt P0DTD1); assay: SARS-CoV-2 Mpro assay (3CL Protease Assay Kit); type: biochemical
# Excerpt: The Mpro activity was investigated using the 3CL Protease Assay Kit. The applied protocol and methodology were depicted in the Supplementary Data (SI4). Herein, the present assay was established to assess the newly synthesised candidates (3a–g) inhibitory effects on the SARS-CoV-2 Mpro enzyme as a recommended mechanism of action.
# SI 4. Methodology and protocol of 3CL Protease (SARS-CoV-2) assay.
# The 3CL Protease Assay Kit is designed to measure 3CL Protease activity for screening and profiling applications, in a homogeneous assay with no time-consuming washing steps. The kit comes in a convenient 96-well format, with purified 3CL Protease, fluorogenic substrate, and 3CL Protease assay buffer for 100 enzyme reactions. 3CL inhibitor GC376 is also included as a positive control.
# Add 0.5 M DTT to 3CL Protease Assay Buffer so final DTT concentration is 1 mM. For example, add 10 μl of 0.5 M DTT to 5 ml assay buffer. (DTT should be added just before use. Prepare only enough DTT-containing buffer as required for the assay. Store the remaining assay buffer at - […]
# 2) Thaw 3CL Protease on ice. Upon first thaw, briefly spin tube containing enzyme to recover the full content of the tube. Aliquot 3CL Protease into single use aliquots. Store remaining undiluted enzyme in aliquots at -80°C. Note: 3CL Protease enzyme is sensitive to freeze/thaw cycles.
# 3) Dilute 3CL Protease in Assay buffer (with 1 mM DTT) at 3-5 ng/μl (90-150 ng per reaction).
# 4) Add 30 μl diluted 3CL Protease enzyme solution to wells designated as “Positive Control”, “Inhibitor Control” and “Test Sample”. Add 30 μl Assay buffer (with 1 mM DTT) to the “Blank” wells.
# Component Positive Test Sample Inhibitor Blank
# Assay Buffer (with DTT) − − − 30 μl […]
# Inhibitor Buffer (no inhibitor) 10 μl − − 10 μl […]
# 5) Dilute 50 μg GC376 in 200 μl water to obtain a 500 μM solution. Aliquot and store remaining solution in aliquots at -80°C. Add 10 μl GC376 (500 μM) to the wells labeled “Inhibitor Control”.
# 6) Prepare the inhibitor solution.
# The final concentration of DMSO in the assay should not exceed 1%. If the inhibitor compound is dissolved in DMSO, make a 100-fold higher concentration of the compound than the highest […]
# concentration you want to test in DMSO. Then make a 20-fold dilution in 1X assay buffer (at this step the compound concentration is 5-fold higher than the final concentration).
# If the inhibitor compound is dissolved in water, make a solution of the compound 5-fold higher than the final concentration in 3CL Protease assay buffer (with 1 mM DTT). For example, diluting 50 μg GC376 in 200 μl water (step 5) creates a 500 μM solution. Adding 10 ul to the assay (final volume 50 μl) results in a 100 μM final concentration.
# 7) Add 10 μl inhibitor to each well designated “Test Sample”. Add 10 μl 1X assay buffer or 5% DMSO (depending on which inhibitor solution is used) to “Blank” and “Positive Control” wells.
# 8) Preincubate enzyme with the inhibitor for 30 min at room temperature with slow shaking.
# 9) Dilute 5 mM 3CL Protease substrate 1:20 in assay buffer with DTT, to make a 250 μM solution.
# Dilute only enough as is required for the assay.
# 10) Start reaction by adding 10 μl of the substrate solution to each well (Final concentration of the 3CL Protease substrate in a 50 μl reaction is 50 μM).
# 11) Incubate at room temperature for overnight. Seal the plate with the plate sealer. Measure the fluorescence intensity in a microtiter plate-reading fluorimeter capable of excitation at a wavelength 360 nm and detection of emission at a wavelength 460 nm. The fluorescence intensity can also be measured kinetically. “Blank” value is subtracted from all other values.
# SI 5. Molecular dynamics (MD) simulations.
# The MD simulations were carried out using Desmond simulation package of Schrödinger LLC.2 The NPT ensemble with the temperature 300 K and a pressure 1 bar was applied in all runs. The simulation length was 100 ns with a relaxation time 1 ps for the ligands. […]
# [1] = tested on: SARS-CoV-2 [hCoV-19/Egypt/NRC-03/2020]; assay: SARS-CoV-2 inhibitory assay (IC50 determination, crystal violet) in Vero E6 cells; type: cell-based
# Protocol: The IC50 for each examined compound (3a–g) which is equivalent to the minimum concentration to inhibit the virus infectivity by 50% compared to the virus control was calculated. The full methodology was depicted in the Supplementary Data (SI3).
# as §1, §2, §3, §4, §5
# [2] = design: method as in PMID 34641339; settings: single-dose administration; cited from earlier work
# SARS-CoV-2 = tested on: SARS-CoV-2; design: method as in PMID 33352056; settings: in vitro assessment; read-out: EC50 against SARS-CoV-2; cited from earlier work
# [3] = 3CL Protease Assay Kit, read-out: SARS-CoV-2 Mpro IC50 (converted)
# [4] = Severe acute respiratory syndrome coronavirus 2, Vero C1008, read-out: IC50 (anti-SARS-CoV-2 activity)
# [5] = Severe acute respiratory syndrome coronavirus 2, Vero C1008, Vero E6 cells, hCoV-19/Egypt/NRC-03/2020, read-out: IC50 (anti-SARS-CoV-2 activity)
# [6] = values used for multiple linear regression, read-out: IC50 (Table 4, regression model; SARS-CoV-2 Mpro values) (converted)
SMILES,CC50 at 24 h (MTT cytotoxicity assay),IC50 (SARS-CoV-2 Mpro; [3]),"IC50 [1, 4]","IC50 [1, 5]",selectivity index (SI = CC50/IC50) ([1]; Vero E6 cells),IC50 (SARS-CoV-2 Mpro; [6]),biological t1/2 [2],mean Cmax [2],EC50 (SARS-CoV-2)
"Cc1ccc(C(=O)Nc2ncc([N+](=O)[O-])s2)cc1 [Compound 3a, 4-Methyl-N-(5-nitrothiazol-2-yl)benzamide]",1470 µg/mL,17.7 µM,5230 µM,1380 µg/mL,,,,,
"O=C(CNC(=O)OCc1ccccc1)Nc1ncc([N+](=O)[O-])s1 [Compound 3b, Benzyl (2-((5-nitrothiazol-2-yl)amino)-2-oxoethyl)carbamate]",1850 µg/mL,15.2 µM,519 µM,175 µg/mL,10,,,,
"C[C@H](NC(=O)OCc1ccccc1)C(=O)Nc1ncc([N+](=O)[O-])s1 [Compound 3c, Benzyl (S)-(1-((5-nitrothiazol-2-yl)amino)-1-oxopropan-2-yl)carbamate]",2120 µg/mL,,1990 µM,698 µg/mL,3,34 µM,,,
"CC(C)[C@H](NC(=O)OCc1ccccc1)C(=O)Nc1ncc([N+](=O)[O-])s1 [Compound 3d, Benzyl (S)-(3-methyl-1-((5-nitrothiazol-2-yl)amino)-1-oxobutan-2-yl)carbamate]",1200 µg/mL,,> 1200 µg/mL,,,235 µM,,,
"O=C(N[C@@H](Cc1ccccc1)C(=O)Nc1ncc([N+](=O)[O-])s1)OCc1ccccc1 [Compound 3e, Benzyl (S)-(1-((5-nitrothiazol-2-yl)amino)-1-oxo-3-phenylpropan-2-yl)carbamate]",2040 µg/mL,,3010 µM,1280 µg/mL,,38.9 µM,,,
"O=C(Nc1ncc([N+](=O)[O-])s1)[C@@H]1CCCN1C(=O)OCc1ccccc1 [Compound 3f, Benzyl (S)-2-((5-nitrothiazol-2-yl)carbamoyl)pyrrolidine-1-carboxylate]",2800 µg/mL,,3330 µM,1250 µg/mL,,59.4 µM,,,
"O=C(N[C@@H](Cc1c[nH]c2ccccc12)C(=O)Nc1ncc([N+](=O)[O-])s1)OCc1ccccc1 [Compound 3g, Benzyl (S)-(3-(1H-indol-3-yl)-1-((5-nitrothiazol-2-yl)amino)-1-oxopropan-2-yl)carbamate]",1630 µg/mL,,> 1630 µg/mL,,,110 µM,,,
CC(C)C(=O)OC[C@H]1O[C@@H](n2ccc(NO)nc2=O)[C@H](O)[C@@H]1O [molnupiravir],,,,,,,7 h,13.2 ng/mL,
CC(=O)Oc1ccccc1C(=O)Nc1ncc([N+](=O)[O-])s1 [nitazoxanide],,,,,,,,,2.12 µM
